What was measured:
aldose reductase [1] = experiment: Reduction of sciatic nerve sorbitol levels in streptozotocin-diabetic rats (inhibition of aldose reductase in vivo); design: species or system rat; conditions: 5 daily oral doses of 3 mg/kg
Description: Rats are made diabetic (as evidenced by severe glucosuria being present) by dosing with streptozotocin. The animals are then dosed daily with the test compound for one, two or five days. The animals are then sacrificed 2-6 hours after the final dose and the eye lenses and/or sciatic nerves are removed. After a standard work-up procedure the residual sorbitol levels in each tissue are determined by gas liquid chromatography after conversion to the polytrimethylsilyl derivatives. Inhibition of aldose reductase in vivo can then be assessed by comparing the residual sorbitol levels in tissues from the dosed diabetic group of rats with those of an undosed group of diabetic rats and an undosed group of normal rats.
In a variation of the above test diabetic rats are dosed at a fixed daily oral dose for five days and then sacrificed 6 hours after the final dose and the reduction of sciatic nerve sorbitol assessed relative to that in control animals.

aldose reductase [2] = target: T1, aldose reductase (Bos taurus, UniProt P16116); experiment: In vitro inhibition of partially purified bovine lens aldose reductase (spectrophotometric); type: biochemical; conditions: partially purified aldose reductase from bovine lenses
T1 construct: partially purified aldose reductase is isolated in known manner from bovine lenses; from tissue; host or cells: bovine lens
Description: Thus, in a standard procedure partially purified aldose reductase is isolated in known manner from bovine lenses. The percentage inhibition of this enzyme's ability in vitro to catalyse the reduction of aldoses to polyhydric alcohols, and particularly to reduce glucose to sorbitol, caused by a test compound can then be determined using standard spectrophotometric methods.

Cc1cc(NC(=O)COc2ccccc2)cc(C)c1S(=O)(=O)C[N+](=O)[O-] [Example 1, (2,6-dimethyl-4-[2-phenoxyacetamido]phenylsulfonyl)nitromethane]
reduction in sciatic nerve sorbitol levels (aldose reductase [1]): 78% | IC50 (aldose reductase [2]): 0.044 µM
